Laboratory results from ChEMBL document CHEMBL3868615, “Decahydrobenzoquinolin-5-one sigma receptor ligands: Divergent development of both sigma 1 and sigma 2 receptor selective examples” (Bioorg Med Chem Lett, 2016).

How the values were obtained:
[1] = target: 5-hydroxytryptamine receptor 2A (Homo sapiens, UniProt P28223); test: Displacement of [3H]Ketanserin from 5-HT2A receptor (unknown origin) measured after 90 mins by microbeta scintillation counting method
[2] = target: Sodium-dependent noradrenaline transporter (Homo sapiens, UniProt P23975); test: Displacement of [3H]Nisoxetine from human NET expressed in HEK cells measured after 90 mins by microbeta scintillation counting method; type: cell-based, HEK293
[3] = target: Alpha-1D adrenergic receptor (Homo sapiens, UniProt P25100); test: Displacement of [3H]Prazosin from human Alpha1D receptor measured after 90 mins by microbeta scintillation counting method
Histamine H2 receptor = Histamine H2 receptor (Homo sapiens, UniProt P25021); test: Binding affinity to H2 receptor (unknown origin) expressed in HEKT cells measured after 90 mins by radioligand binding assay; type: cell-based
PC-12 = test: Selectivity ratio of Ki for sigma2 receptor in rat PC12 cells to Ki for guinea pig sigma1 receptor; type: cell-based
[4] = target: Beta-2 adrenergic receptor (Homo sapiens, UniProt P07550); test: Displacement of [3H]CGP12177 from human beta2 receptor expressed in HEK Flp-In cells measured after 90 mins by microbeta scintillation counting method; type: cell-based, HEK293
[5] = target: Sigma non-opioid intracellular receptor 1 (Cavia porcellus, UniProt Q60492); test: Displacement of [3H]pentazocine from guinea pig sigma1 receptor measured after 90 mins by microbeta scintillation counting method
D(1A) dopamine receptor = D(1A) dopamine receptor (Homo sapiens, UniProt P21728); test: Displacement of [3H]SCH23390 from human D1 receptor expressed in HEK-T cells measured after 90 mins by microbeta scintillation counting method; type: cell-based
Histamine H1 receptor = Histamine H1 receptor (Homo sapiens, UniProt P35367); test: Displacement of [3H]Pyrilamine from human H1 receptor expressed in HEK cells measured after 90 mins by microbeta scintillation counting method; type: cell-based, HEK293
[6] = target: Alpha-1A adrenergic receptor (Homo sapiens, UniProt P35348); test: Displacement of [3H]Prazosin from human Alpha1A receptor measured after 90 mins by microbeta scintillation counting method
[7] = target: 5-hydroxytryptamine receptor 1E (Homo sapiens, UniProt P28566); test: Displacement of [3H]5-HT from human 5-HT1E receptor expressed in HEK cells measured after 90 mins by microbeta scintillation counting method; type: cell-based, HEK293
[8] = target: 5-hydroxytryptamine receptor 7 (Homo sapiens, UniProt P34969); test: Displacement of [3H]LSD from human 5-HT7 receptor expressed in HEK cells measured after 90 mins by microbeta scintillation counting method; type: cell-based, HEK293
[9] = target: Alpha-2C adrenergic receptor (Homo sapiens, UniProt P18825); test: Displacement of [3H]Rauwolscine from human Alpha2C receptor expressed in MDCK cells measured after 90 mins by microbeta scintillation counting method; type: cell-based
[10] = target: Muscarinic acetylcholine receptor M5 (Homo sapiens, UniProt P08912); test: Binding affinity to human M5 receptor expressed in CHO cells measured after 90 mins by radioligand binding assay; type: cell-based
[11] = target: 5-hydroxytryptamine receptor 3A (Homo sapiens, UniProt P46098); test: Displacement of [3H]GR65630 from human 5-HT3 receptor expressed in HEK-T cells measured after 90 mins by microbeta scintillation counting method; type: cell-based
[12] = target: Muscarinic acetylcholine receptor M3 (Homo sapiens, UniProt P20309); test: Binding affinity to human M3 receptor expressed in CHO cells measured after 90 mins by radioligand binding assay; type: cell-based
[13] = target: Sodium-dependent dopamine transporter (Homo sapiens, UniProt Q01959); test: Displacement of [3H]WIN35428 from human DAT expressed in HEK cells measured after 90 mins by microbeta scintillation counting method; type: cell-based, HEK293
[14] = target: Sodium-dependent serotonin transporter (Homo sapiens, UniProt P31645); test: Displacement of [3H]Citalopram from human SERT expressed in HEK cells measured after 90 mins by microbeta scintillation counting method; type: cell-based, HEK293
[15] = target: Alpha-2A adrenergic receptor (Homo sapiens, UniProt P08913); test: Displacement of [3H]Rauwolscine from human Alpha2A receptor expressed in MDCK cells measured after 90 mins by microbeta scintillation counting method; type: cell-based
Histamine H3 receptor = Histamine H3 receptor (Homo sapiens, UniProt Q9Y5N1); test: Displacement of [3H]alpha-methylhistamine from human H3 receptor expressed in HEK Flp-In cells measured after 90 mins by microbeta scintillation counting method; type: cell-based, HEK293
[16] = target: 5-hydroxytryptamine receptor 6 (Homo sapiens, UniProt P50406); test: Displacement of [3H]LSD from human 5-HT6 receptor expressed in HEK cells measured after 90 mins by microbeta scintillation counting method; type: cell-based, HEK293
[17] = target: 5-hydroxytryptamine receptor 1B (Homo sapiens, UniProt P28222); test: Displacement of [3H]5-CT from human 5-HT1B receptor expressed in HEK cells measured after 90 mins by microbeta scintillation counting method; type: cell-based, HEK293
[18] = target: 5-hydroxytryptamine receptor 2C (Homo sapiens, UniProt P28335); test: Displacement of [3H]Mesulergine from human 5-HT2C receptor expressed in Flp-IN HEK cells measured after 90 mins by microbeta scintillation counting method; type: cell-based, HEK293
Histamine H4 receptor = Histamine H4 receptor (Homo sapiens, UniProt Q9H3N8); test: Displacement of [3H]Histamine from H4 receptor (unknown origin) measured after 90 mins by microbeta scintillation counting method
D(1B) dopamine receptor = D(1B) dopamine receptor (Homo sapiens, UniProt P21918); test: Displacement of [3H]SCH23390 from human D5 receptor expressed in HEK-T cells measured after 90 mins by microbeta scintillation counting method; type: cell-based
[19] = target: Kappa-type opioid receptor (Homo sapiens, UniProt P41145); test: Displacement of [3H]U69593 from KOR (unknown origin) expressed in HEKT cells measured after 90 mins by microbeta scintillation counting method; type: cell-based
D(4) dopamine receptor = D(4) dopamine receptor (Homo sapiens, UniProt P21917); test: Displacement of [3H]N-methylspiperone from human D4 receptor measured after 90 mins by microbeta scintillation counting method
[20] = target: Muscarinic acetylcholine receptor M1 (Homo sapiens, UniProt P11229); test: Binding affinity to human M1 receptor expressed in CHO cells measured after 90 mins by radioligand binding assay; type: cell-based
[21] = target: Sigma non-opioid intracellular receptor 1 (Cavia porcellus) (UniProt Q60492); details: 10 uM
[22] = target: Muscarinic acetylcholine receptor M4 (Homo sapiens, UniProt P08173); test: Binding affinity to human M4 receptor expressed in CHO cells measured after 90 mins by radioligand binding assay; type: cell-based
[23] = Displacement of [3H]Muscimol from GABAA receptor in rat brain measured after 90 mins by microbeta scintillation counting method; type: tissue-based
[24] = target: Delta-type opioid receptor (Homo sapiens, UniProt P41143); test: Displacement of [3H]DADLE from human DOR expressed in HEK cells measured after 90 mins by microbeta scintillation counting method; type: cell-based, HEK293
[25] = target: Alpha-2B adrenergic receptor (Homo sapiens, UniProt P18089); test: Displacement of [3H]Rauwolscine from human Alpha2B receptor expressed in HEK-T cells measured after 90 mins by microbeta scintillation counting method; type: cell-based
D(2) dopamine receptor = D(2) dopamine receptor (Homo sapiens, UniProt P14416); test: Displacement of [3H]N-methylspiperone from human D2 receptor expressed in fibroblast cells measured after 90 mins by microbeta scintillation counting method; type: cell-based
Sequence of D(2) dopamine receptor (P14416 whole entry): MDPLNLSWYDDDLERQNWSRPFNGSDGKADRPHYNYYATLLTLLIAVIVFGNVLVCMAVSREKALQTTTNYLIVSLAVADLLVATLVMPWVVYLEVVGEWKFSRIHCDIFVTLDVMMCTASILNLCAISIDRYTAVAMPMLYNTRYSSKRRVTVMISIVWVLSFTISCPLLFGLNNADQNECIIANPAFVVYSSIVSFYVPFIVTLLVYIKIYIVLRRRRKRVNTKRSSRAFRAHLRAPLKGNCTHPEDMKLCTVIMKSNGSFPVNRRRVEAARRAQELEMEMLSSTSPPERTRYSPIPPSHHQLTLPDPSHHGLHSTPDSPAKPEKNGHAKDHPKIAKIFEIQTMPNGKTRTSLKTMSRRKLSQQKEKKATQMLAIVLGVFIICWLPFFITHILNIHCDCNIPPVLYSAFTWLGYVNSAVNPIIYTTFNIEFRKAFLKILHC

Sequence of Histamine H3 receptor (Q9Y5N1 whole entry): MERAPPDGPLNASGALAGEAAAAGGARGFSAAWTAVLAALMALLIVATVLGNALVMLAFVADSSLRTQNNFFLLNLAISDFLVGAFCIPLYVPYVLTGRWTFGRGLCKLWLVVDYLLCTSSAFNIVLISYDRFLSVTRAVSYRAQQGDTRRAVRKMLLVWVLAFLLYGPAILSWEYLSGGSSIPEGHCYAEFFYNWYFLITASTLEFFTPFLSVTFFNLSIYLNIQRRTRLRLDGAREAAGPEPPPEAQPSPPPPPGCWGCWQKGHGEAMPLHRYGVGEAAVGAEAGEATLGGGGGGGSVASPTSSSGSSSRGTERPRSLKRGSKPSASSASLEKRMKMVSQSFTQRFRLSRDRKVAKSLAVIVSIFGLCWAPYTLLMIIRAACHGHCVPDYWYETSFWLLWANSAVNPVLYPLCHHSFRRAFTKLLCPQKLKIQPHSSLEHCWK
Sequence of Alpha-1A adrenergic receptor (P35348 whole entry): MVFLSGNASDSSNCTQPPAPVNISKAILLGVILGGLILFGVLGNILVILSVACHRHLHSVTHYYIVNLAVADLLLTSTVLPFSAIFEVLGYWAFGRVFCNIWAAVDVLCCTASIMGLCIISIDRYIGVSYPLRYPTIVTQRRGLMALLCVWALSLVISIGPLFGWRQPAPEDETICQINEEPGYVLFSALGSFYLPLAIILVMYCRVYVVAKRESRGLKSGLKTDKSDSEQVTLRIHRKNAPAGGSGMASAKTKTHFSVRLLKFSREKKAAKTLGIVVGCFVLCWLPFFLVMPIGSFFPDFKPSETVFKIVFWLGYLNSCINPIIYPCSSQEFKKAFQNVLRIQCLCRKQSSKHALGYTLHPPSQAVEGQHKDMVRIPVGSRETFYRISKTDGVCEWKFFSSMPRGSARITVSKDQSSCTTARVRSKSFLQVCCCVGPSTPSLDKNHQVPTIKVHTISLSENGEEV
Sequence of Alpha-2A adrenergic receptor (P08913 whole entry): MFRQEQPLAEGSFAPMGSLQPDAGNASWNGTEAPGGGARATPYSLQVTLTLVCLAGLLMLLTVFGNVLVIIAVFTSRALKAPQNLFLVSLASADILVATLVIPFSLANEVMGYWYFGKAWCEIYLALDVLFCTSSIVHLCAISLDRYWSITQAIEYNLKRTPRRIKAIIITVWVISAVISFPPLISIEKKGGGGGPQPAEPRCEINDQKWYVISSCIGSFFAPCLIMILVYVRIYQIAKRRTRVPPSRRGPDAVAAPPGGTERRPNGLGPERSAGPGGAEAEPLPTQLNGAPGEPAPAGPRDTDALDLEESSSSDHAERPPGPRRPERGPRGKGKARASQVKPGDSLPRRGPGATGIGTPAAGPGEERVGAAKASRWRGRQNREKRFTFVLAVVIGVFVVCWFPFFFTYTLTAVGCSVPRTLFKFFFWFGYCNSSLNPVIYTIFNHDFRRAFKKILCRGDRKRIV
Sequence of Histamine H2 receptor (P25021 whole entry): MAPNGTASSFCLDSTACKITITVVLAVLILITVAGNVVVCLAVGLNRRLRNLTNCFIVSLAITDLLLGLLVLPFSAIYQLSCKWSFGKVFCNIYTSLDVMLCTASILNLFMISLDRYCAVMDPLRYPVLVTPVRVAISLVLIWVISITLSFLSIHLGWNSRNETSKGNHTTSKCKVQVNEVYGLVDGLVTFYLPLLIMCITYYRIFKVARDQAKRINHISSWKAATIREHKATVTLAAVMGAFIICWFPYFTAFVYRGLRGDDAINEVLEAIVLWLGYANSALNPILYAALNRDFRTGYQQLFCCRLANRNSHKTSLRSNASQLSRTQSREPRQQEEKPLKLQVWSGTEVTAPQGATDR
Sequence of Muscarinic acetylcholine receptor M5 (P08912 whole entry): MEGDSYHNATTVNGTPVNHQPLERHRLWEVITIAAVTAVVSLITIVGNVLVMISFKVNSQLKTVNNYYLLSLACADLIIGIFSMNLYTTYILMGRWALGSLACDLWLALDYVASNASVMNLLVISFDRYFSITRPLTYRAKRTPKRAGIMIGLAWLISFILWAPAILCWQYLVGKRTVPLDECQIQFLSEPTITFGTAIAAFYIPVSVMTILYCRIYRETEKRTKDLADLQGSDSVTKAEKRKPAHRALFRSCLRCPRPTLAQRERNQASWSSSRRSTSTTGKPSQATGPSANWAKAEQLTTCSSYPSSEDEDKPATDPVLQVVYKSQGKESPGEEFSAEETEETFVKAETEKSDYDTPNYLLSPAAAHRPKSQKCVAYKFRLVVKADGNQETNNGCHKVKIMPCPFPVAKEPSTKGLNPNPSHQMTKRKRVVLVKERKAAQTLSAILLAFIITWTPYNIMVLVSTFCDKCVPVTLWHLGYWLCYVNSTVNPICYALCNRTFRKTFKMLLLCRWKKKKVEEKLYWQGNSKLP
Sequence of Alpha-2C adrenergic receptor (P18825 whole entry): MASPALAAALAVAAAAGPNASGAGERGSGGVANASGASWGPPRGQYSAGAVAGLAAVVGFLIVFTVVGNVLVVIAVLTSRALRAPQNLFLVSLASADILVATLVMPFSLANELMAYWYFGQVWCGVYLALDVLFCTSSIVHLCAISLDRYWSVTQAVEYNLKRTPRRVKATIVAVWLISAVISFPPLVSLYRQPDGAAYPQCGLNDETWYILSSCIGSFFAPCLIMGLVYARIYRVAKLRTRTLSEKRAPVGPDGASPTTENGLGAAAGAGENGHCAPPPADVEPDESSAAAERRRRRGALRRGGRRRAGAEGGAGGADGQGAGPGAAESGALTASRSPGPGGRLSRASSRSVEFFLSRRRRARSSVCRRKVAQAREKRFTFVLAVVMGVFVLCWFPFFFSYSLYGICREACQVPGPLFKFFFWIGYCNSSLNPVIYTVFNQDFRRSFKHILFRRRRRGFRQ
Sequence of Sodium-dependent dopamine transporter (Q01959 whole entry): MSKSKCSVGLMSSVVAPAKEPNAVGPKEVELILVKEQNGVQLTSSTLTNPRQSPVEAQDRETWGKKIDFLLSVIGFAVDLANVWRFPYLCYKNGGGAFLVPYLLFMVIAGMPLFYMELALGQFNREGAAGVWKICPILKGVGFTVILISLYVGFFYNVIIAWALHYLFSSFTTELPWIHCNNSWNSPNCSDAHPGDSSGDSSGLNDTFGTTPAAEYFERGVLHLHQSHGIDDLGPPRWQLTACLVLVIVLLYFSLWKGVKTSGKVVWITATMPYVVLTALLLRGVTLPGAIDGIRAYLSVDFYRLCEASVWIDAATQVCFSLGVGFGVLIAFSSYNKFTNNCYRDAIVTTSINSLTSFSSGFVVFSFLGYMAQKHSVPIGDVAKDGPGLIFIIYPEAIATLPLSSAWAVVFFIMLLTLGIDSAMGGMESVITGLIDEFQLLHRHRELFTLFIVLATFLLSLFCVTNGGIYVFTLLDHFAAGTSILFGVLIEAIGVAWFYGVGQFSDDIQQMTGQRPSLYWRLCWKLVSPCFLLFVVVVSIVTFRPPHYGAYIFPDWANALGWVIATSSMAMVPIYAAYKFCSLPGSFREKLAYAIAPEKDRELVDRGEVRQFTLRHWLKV
Sequence of 5-hydroxytryptamine receptor 1B (P28222 whole entry): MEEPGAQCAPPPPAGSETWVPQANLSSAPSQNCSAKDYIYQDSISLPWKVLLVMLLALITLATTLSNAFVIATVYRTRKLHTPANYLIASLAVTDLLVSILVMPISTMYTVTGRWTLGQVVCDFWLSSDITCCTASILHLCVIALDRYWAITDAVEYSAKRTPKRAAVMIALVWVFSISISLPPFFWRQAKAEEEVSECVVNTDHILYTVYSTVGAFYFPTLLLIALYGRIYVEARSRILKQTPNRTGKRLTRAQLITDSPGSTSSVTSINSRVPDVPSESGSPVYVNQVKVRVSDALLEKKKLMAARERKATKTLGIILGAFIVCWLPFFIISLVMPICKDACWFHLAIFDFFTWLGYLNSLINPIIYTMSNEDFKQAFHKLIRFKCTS
Sequence of Sodium-dependent noradrenaline transporter (P23975 whole entry): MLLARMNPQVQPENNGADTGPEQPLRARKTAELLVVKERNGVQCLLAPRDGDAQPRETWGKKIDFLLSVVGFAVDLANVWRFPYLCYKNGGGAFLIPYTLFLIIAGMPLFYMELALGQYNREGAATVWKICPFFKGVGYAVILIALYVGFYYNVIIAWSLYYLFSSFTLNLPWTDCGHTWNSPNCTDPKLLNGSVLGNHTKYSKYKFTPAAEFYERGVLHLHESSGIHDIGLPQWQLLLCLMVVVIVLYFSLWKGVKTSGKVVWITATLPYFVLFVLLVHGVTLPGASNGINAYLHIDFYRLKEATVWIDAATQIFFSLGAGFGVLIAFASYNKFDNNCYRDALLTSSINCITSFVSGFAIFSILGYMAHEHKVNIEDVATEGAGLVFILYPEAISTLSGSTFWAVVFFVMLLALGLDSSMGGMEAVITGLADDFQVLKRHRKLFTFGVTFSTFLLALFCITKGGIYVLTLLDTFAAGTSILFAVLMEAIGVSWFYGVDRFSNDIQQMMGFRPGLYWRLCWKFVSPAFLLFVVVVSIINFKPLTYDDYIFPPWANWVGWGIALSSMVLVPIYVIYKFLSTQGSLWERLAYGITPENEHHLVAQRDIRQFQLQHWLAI

CN1CC[C@H]2CC(=O)[C@H](Cc3ccccc3)[C@H]3CCC[C@@H]1[C@H]23
Ki [1]: > 10 µM
Ki [2]: > 10 µM
Ki [3]: > 10 µM
Ki (Histamine H2 receptor): > 10 µM
Ratio Ki (PC-12): 98.7
Ki [4]: > 10 µM
Ki [5]: 0.0015 to 0.002 µM
Ki (D(1A) dopamine receptor): > 10 µM
Ki (Histamine H1 receptor): > 10 µM
Ki [6]: > 10 µM
Ki [7]: > 10 µM
Ki [8]: > 10 µM
Ki [9]: > 10 µM
Ki [10]: 3.49 µM
Ki [11]: > 10 µM
Ki [12]: 0.661 µM
Ki [13]: 2.18 µM
Ki [14]: > 10 µM
Ki [15]: > 10 µM
Ki (Histamine H3 receptor): 0.814 µM
Ki [16]: > 10 µM
Ki [17]: > 10 µM
Ki [18]: 1.68 µM
Ki (Histamine H4 receptor): > 10 µM
Ki (D(1B) dopamine receptor): > 10 µM
Ki [19]: > 10 µM
Ki (D(4) dopamine receptor): > 10 µM
Ki [20]: > 10 µM
inhibition [21]: > 50%
Ki [22]: > 10 µM
Ki [23]: > 10 µM
Ki [24]: > 10 µM
Ki [25]: > 10 µM
Ki (D(2) dopamine receptor): > 10 µM

CCCN1CC[C@H]2c3cc4ccc(C(F)(F)F)cc4nc3[C@H](CC)[C@H]3CCC[C@@H]1[C@@H]32
Ki [1]: > 10 µM
Ki [2]: > 10 µM
Ki [3]: > 10 µM
Ki (Histamine H2 receptor): > 10 µM
Ratio Ki (PC-12): 0.04
Ki [4]: > 10 µM
Ki [5]: 0.423 µM
Ki (D(1A) dopamine receptor): > 10 µM
Ki (Histamine H1 receptor): > 10 µM
Ki [6]: > 10 µM
Ki [7]: > 10 µM
Ki [8]: > 10 µM
Ki [9]: 1.04 µM
Ki [10]: > 10 µM
Ki [11]: > 10 µM
Ki [12]: > 10 µM
Ki [13]: > 10 µM
Ki [14]: > 10 µM
Ki [15]: 1.59 µM
Ki (Histamine H3 receptor): > 10 µM
Ki [16]: > 10 µM
Ki [17]: > 10 µM
Ki [18]: > 10 µM
Ki (Histamine H4 receptor): > 10 µM
Ki (D(1B) dopamine receptor): > 10 µM
Ki [19]: 0.416 µM
Ki (D(4) dopamine receptor): > 10 µM
Ki [20]: > 10 µM
inhibition [21]: > 50%
Ki [22]: > 10 µM
Ki [23]: > 10 µM
Ki [24]: > 10 µM
Ki [25]: 1.04 µM
Ki (D(2) dopamine receptor): > 10 µM
